Test results as given in US20240270762A1, “PENICILLIN-BINDING PROTEIN INHIBITORS” (priority 2021, published 2024).
Values after ≈ are worked out from the molar mass of the structure shown. Where two headings read alike, the source gives them in different places.

Tests used:
P. aeruginosa ATCC 35151 = test: microbe, parasite or virus in culture; format: cell-based; conditions: Pseudomonas aeruginosa, ATCC35151, read-out: Minimum inhibitory concentration, P. aeruginosa ATCC 35151
P. aeruginosa CDC-0054 = test: microbe, parasite or virus in culture; format: cell-based; conditions: Pseudomonas aeruginosa, CDC0054, read-out: Minimum inhibitory concentration, P. aeruginosa CDC-0054
P. aeruginosa CDC-0095 = test: microbe, parasite or virus in culture; format: cell-based; conditions: Pseudomonas aeruginosa, CDC0095, read-out: Minimum inhibitory concentration, P. aeruginosa CDC-0095
A. baumannii PBP2 = A. baumannii PBP2 (Acinetobacter baumannii, UniProt D0C8Z9); test: Bocillin-FL competition binding via gel filtration, A. baumannii PBP2
Experimental: (§1) Affinity to A. baumannii PBP1a and PBP2 was assessed a competitive equilibrium binding assay using Bocillin-FL as the reporter molecule. Enzyme was pre-incubated with increasing concentrations of inhibitors, prior to addition of Bocillin and further incubation for 15 minutes. PBP bound with Bocillin-FL was separated by gel filtration using 96-well Zeba Spin size exclusion plates, and the fluorescence measured. The inhibitor affinity (reported as the EC50) was determined by plotting the fraction of PBP bound with Bocillin-FL at each inhibitor concentration against the inhibitor concentration, and fitting the data to the following equation:
(§2) [formula] • where y is the fraction bound at a given inhibitor concentration, ymin is the fraction bound when the enzyme is completely inactivated, ymax is the maximum (uninhibited) fraction bound, n is the Hill coefficient, and x is the inhibitor concentration.

P. aeruginosa CDC-0110 = test: microbe, parasite or virus in culture; format: cell-based; conditions: Pseudomonas aeruginosa, CDC0110, read-out: Minimum inhibitory concentration, P. aeruginosa CDC-0110
P. aeruginosa CDC-0090 = test: microbe, parasite or virus in culture; format: cell-based; conditions: Pseudomonas aeruginosa, CDC0090, read-out: Minimum inhibitory concentration, P. aeruginosa CDC-0090
P. aeruginosa ATCC 27853 = test: microbe, parasite or virus in culture; format: cell-based; conditions: Pseudomonas aeruginosa, ATCC27853, read-out: Minimum inhibitory concentration, P. aeruginosa ATCC 27853
[1] = tested on: B. thailandensis ATCC 700388; test: microbe, parasite or virus in culture; format: cell-based; conditions: Burkholderia thailandensis, ATCC700388, read-out: Minimum inhibitory concentration (MIC), B. thailandensis ATCC 700388
[2] = tested on: P. aeruginosa (ΔmexAB-oprM); test: Broth microdilution MIC in iron-depleted CAMHB (IDM); format: cell-based; conditions: Pseudomonas aeruginosa, read-out: Minimum inhibitory concentration, P. aeruginosa ΔmexAB-oprM
[3] = tested on: B. humptydooensis ATCC BAA-2767; test: microbe, parasite or virus in culture; format: cell-based; conditions: Burkholderia humptydooensis, ATCCBAA2767, read-out: Minimum inhibitory concentration (MIC), B. humptydooensis ATCC BAA-2767
A. baumannii PBP1a = biological target: T1, A. baumannii PBP1a (Acinetobacter baumannii, UniProt A0ABX6CK30); test: Bocillin-FL competition binding via gel filtration, A. baumannii PBP1a; conditions: competition binding assay using Bocillin-FL via gel filtration; read-out: A. baumannii PBP1a Potency
T1 sequence (A0ABX6CK30 1-851): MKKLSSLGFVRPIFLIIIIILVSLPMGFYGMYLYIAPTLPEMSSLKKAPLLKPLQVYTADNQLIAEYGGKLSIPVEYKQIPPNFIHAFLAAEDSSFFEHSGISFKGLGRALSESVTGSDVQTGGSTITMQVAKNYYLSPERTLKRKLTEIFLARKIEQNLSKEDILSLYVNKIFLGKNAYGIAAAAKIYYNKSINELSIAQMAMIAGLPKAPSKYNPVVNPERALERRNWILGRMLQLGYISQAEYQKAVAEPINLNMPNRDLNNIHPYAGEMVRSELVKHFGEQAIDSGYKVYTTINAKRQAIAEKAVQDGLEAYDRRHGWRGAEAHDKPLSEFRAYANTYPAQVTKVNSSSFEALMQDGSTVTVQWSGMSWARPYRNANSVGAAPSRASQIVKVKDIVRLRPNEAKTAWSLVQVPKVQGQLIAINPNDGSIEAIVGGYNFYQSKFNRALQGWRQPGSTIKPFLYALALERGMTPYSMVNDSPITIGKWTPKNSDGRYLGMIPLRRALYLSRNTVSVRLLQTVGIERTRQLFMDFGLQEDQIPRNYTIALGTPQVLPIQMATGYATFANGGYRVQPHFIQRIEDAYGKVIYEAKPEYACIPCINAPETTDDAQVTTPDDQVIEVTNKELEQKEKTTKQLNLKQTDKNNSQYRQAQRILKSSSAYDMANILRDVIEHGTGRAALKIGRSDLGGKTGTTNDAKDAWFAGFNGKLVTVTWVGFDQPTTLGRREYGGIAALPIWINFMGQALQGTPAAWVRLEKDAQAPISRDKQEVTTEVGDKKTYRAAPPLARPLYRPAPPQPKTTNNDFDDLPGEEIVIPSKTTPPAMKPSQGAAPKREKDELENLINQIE
Experimental: as §1, §2

A. baumannii ATCC 17978 = test: microbe, parasite or virus in culture; format: cell-based; conditions: Acinetobacter baumannii, ATCC17978, read-out: Minimum inhibitory concentration (MIC), A. baumannii ATCC 17978
A. baumannii 1258916 = test: microbe, parasite or virus in culture; format: cell-based, Acinetobacter baumannii; conditions: Acinetobacter baumannii, 1258916, read-out: Minimum inhibitory concentration (MIC), A. baumannii 1258916
[4] = biological target: T2, PBP3 from Pseudomonas aeruginosa (PAO1) (Pseudomonas aeruginosa, UniProt G3XD46); test: Bocillin-FL fluorescence polarization competition binding, P. aeruginosa PBP3; conditions: Binding affinity to P. aeruginosa PBP3; fluorescence polarization competition binding assay using Bocillin-FL; read-out: P. aeruginosa PBP3 Potency
T2 construct: made in house
In short: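 Purified PBP was preincubated with inhibitor (E. coli PBP3 1.5 μM, 30 min; P. aeruginosa PBP3 0.75 μM, A. baumannii PBP3 0.2 μM and PBP1a 1 μM, 15 min), then Bocillin-FL (0.1 μM; 0.05 μM for PBP1a) added and FP read up to 60 min. EC50 = 50% loss of bound probe.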

A. baumannii CDC-0036 = test: microbe, parasite or virus in culture; format: cell-based; conditions: Acinetobacter baumannii, CDC0036, read-out: Minimum inhibitory concentration (MIC), A. baumannii CDC-0036
A. baumannii ATCC 19606 = test: microbe, parasite or virus in culture; format: cell-based; conditions: Acinetobacter baumannii, ATCC19606, read-out: Minimum inhibitory concentration (MIC), A. baumannii ATCC 19606
A. baumannii CDC-0045 = test: microbe, parasite or virus in culture; format: cell-based; conditions: Acinetobacter baumannii, CDC0045, read-out: Minimum inhibitory concentration (MIC), A. baumannii CDC-0045
B. pseudomallei Bp82 = test: microbe, parasite or virus in culture; format: cell-based; conditions: Burkholderia pseudomallei, BP82, read-out: Minimum inhibitory concentration, B. pseudomallei Bp82
A. baumannii CDC-0033 = test: microbe, parasite or virus in culture; format: cell-based; conditions: Acinetobacter baumannii, CDC0033, read-out: Minimum inhibitory concentration (MIC), A. baumannii CDC-0033

A. baumannii PBP2, sequence (D0C8Z9 whole entry): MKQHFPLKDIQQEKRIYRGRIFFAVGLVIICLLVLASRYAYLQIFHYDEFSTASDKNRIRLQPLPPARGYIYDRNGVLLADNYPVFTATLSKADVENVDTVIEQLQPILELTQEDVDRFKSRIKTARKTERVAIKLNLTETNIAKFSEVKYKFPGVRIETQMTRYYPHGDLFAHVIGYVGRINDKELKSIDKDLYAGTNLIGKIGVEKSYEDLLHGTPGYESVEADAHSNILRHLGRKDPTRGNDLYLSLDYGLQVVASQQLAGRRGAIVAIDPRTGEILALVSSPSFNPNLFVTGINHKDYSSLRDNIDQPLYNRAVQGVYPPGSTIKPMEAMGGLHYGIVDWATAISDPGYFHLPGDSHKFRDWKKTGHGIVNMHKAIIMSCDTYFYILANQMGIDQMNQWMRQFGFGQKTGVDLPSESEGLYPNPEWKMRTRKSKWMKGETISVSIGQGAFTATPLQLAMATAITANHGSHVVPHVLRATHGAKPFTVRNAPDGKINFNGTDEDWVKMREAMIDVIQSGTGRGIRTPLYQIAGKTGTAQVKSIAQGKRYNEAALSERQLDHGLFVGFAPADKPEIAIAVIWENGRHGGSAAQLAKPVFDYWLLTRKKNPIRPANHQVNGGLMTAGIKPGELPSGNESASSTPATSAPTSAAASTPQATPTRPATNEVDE
T2 sequence (G3XD46 whole entry): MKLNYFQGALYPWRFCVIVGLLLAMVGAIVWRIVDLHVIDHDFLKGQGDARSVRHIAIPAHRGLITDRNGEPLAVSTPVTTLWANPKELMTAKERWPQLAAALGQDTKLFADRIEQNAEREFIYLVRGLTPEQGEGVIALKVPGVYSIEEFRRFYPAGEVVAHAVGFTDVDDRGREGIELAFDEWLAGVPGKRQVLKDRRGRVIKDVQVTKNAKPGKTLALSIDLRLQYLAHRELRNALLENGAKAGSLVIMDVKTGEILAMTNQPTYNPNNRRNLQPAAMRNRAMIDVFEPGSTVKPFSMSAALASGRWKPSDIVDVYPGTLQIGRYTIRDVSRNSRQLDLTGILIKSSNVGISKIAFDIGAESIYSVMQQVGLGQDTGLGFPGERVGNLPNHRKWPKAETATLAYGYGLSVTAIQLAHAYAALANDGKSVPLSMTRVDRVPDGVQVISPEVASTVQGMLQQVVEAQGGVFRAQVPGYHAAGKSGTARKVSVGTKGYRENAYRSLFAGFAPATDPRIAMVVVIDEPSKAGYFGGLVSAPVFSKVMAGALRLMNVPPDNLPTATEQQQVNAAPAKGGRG

| Structure (SMILES) | MIC (P. aeruginosa ATCC 35151) [µg/mL] | MIC (P. aeruginosa CDC-0054) [µg/mL] | MIC (P. aeruginosa CDC-0095) [µg/mL] | EC50 (A. baumannii PBP2) [µM] | MIC (P. aeruginosa CDC-0110) [µg/mL] | MIC (P. aeruginosa CDC-0090) [µg/mL] | MIC (P. aeruginosa ATCC 27853) [µg/mL] | MIC [1] [µg/mL] | MIC ([2]; iron-depleted CAMHB (IDM), […]) [µg/mL] | MIC [3] [µg/mL] | EC50 (A. baumannii PBP1a) [µM] | MIC [2] [µg/mL] | MIC (A. baumannii ATCC 17978) [µg/mL] | MIC (A. baumannii 1258916) [µg/mL] | IC50 [4] [µM] | MIC (A. baumannii CDC-0036) [µg/mL] | MIC (A. baumannii ATCC 19606) [µg/mL] | MIC (A. baumannii CDC-0045) [µg/mL] | MIC (B. pseudomallei Bp82) [µg/mL] | MIC (A. baumannii CDC-0033) [µg/mL] |
| --- | --- | --- | --- | --- | --- | --- | --- | --- | --- | --- | --- | --- | --- | --- | --- | --- | --- | --- | --- | --- |
| NCc1cccc(C(=O)N2CCC(N3CCN(C(=O)N[C@@H](C(=O)N[C@H]4Cc5ccc(F)c(C(=O)O)c5OB4O)c4cc(F)c(O)c(O)c4Cl)C3=O)CC2)c1 [Example 603, (R)-3-((R)-2-(3-(1-(3-(aminomethyl)benzoyl)piperidin-4-yl)-2-oxoimidazolidine-1-carboxamido)-2-(2-chloro-5-fluoro-3,4-dihydroxyphenyl)acetamido)-7-fluoro-2-hydroxy-3,4-dihydro-2H-benzo[e][1,2]oxaborinine-8-carboxylic acid] | < 1 | < 1 | 2 to 4 (≈ 2.59 to 5.19 µM) | 10 to 50 | < 1 | 2 to 4 (≈ 2.59 to 5.19 µM) | < 1 | < 1 | < 1 | < 1 | 10 to 50 | – | – | – | – | – | – | – | – | – |
| O=C(O)c1c(F)ccc2c1OB(O)[C@@H](NC(=O)[C@H](NC(=O)N1CCN(C3CCN(S(=O)(=O)c4ccc5[nH]nnc5c4)CC3)C1=O)c1cc(F)c(O)c(O)c1Cl)C2 (single isomer, unassigned) [Example 621] | < 1 | < 1 | < 1 | < 10 | < 1 | < 1 | < 1 | 2 to 4 (≈ 2.44 to 4.88 µM) | – | < 1 | < 10 | < 1 | – | – | – | – | – | – | – | – |
| Nc1cc(CN2CCC(N3CCN(C(=O)N[C@@H](C(=O)N[C@H]4Cc5ccc(F)c(C(=O)O)c5OB4O)c4cc(F)c(O)c(O)c4Cl)C3=O)CC2)ccn1 [Example 619, (R)-3-((R)-2-(3-(1-((2-aminopyridin-4-yl)methyl)piperidin-4-yl)-2-oxoimidazolidine-1-carboxamido)-2-(2-chloro-5-fluoro-3,4-dihydroxyphenyl)acetamido)-7-fluoro-2-hydroxy-3,4-dihydro-2H-benzo[e][1,2]oxaborinine-8-carboxylic acid] | < 1 | < 1 | < 1 | 10 to 50 | < 1 | < 1 | < 1 | < 1 | – | < 1 | < 10 | < 1 | – | – | – | – | – | – | – | – |
| NCc1cc(O)cc(C(=O)N2CCC(N3CCN(C(=O)N[C@@H](C(=O)N[C@H]4Cc5ccc(F)c(C(=O)O)c5OB4O)c4cc(F)c(O)c(O)c4Cl)C3=O)CC2)c1 (single isomer, unassigned) [Example 615] | < 1 | < 1 | < 1 | 10 to 50 | < 1 | < 1 | < 1 | < 1 | – | < 1 | 10 to 50 | < 1 | – | – | – | – | – | – | – | – |
| O=C(O)c1c(F)ccc2c1OB(O)[C@@H](NC(=O)[C@H](NC(=O)N1CCN(C3CCN(S(=O)(=O)c4ccc5[nH]nnc5c4)CC3)C1=O)c1cc(F)c(O)c(O)c1F)C2 [Example 622, (R)-3-((R)-2-(3-(1-((1H-benzo[d][1,2,3]triazol-5-yl)sulfonyl)piperidin-4-yl)-2-oxoimidazolidine-1-carboxamido)-2-(2,5-difluoro-3,4-dihydroxyphenyl)acetamido)-7-fluoro-2-hydroxy-3,4-dihydro-2H-benzo[e][1,2]oxaborinine-8-carboxylic acid] | < 1 | < 1 | 2 to 4 (≈ 2.49 to 4.98 µM) | – | < 1 | < 1 | 2 to 4 (≈ 2.49 to 4.98 µM) | 2 to 4 (≈ 2.49 to 4.98 µM) | < 1 | – | – | – | – | – | – | – | – | – | – | – |
| O=C(O)c1c(F)ccc2c1OB(O)[C@@H](NC(=O)[C@H](NC(=O)N1CCN(C3CCN(C(=O)Nc4cc(O)c(O)c(Cl)c4)CC3)C1=O)c1ccc(P(=O)(O)O)cc1)C2 (single isomer, unassigned) [Example 501] | – | – | – | < 10 | – | – | – | < 1 | – | < 1 | < 10 | – | < 1 | 2 to 4 (≈ 2.44 to 4.88 µM) | < 10 | 2 to 4 (≈ 2.44 to 4.88 µM) | < 1 | < 1 | 2 to 4 (≈ 2.44 to 4.88 µM) | 2 to 4 (≈ 2.44 to 4.88 µM) |
| O=C(O)c1c(F)ccc2c1OB(O)[C@@H](NC(=O)C(NC(=O)N1CCN(C3CCN(Cc4ccc(O)c(F)c4)CC3)C1=O)c1cc(F)c(O)c(O)c1Cl)C2 (single isomer, unassigned) [Example 610] | – | – | – | 10 to 50 | – | – | – | < 1 | – | < 1 | < 10 | – | – | – | – | – | – | – | < 1 | – |
| O=C(O)c1c(F)ccc2c1OB(O)[C@@H](NC(=O)[C@H](NC(=O)N1CCN(C3CCN(C(=O)c4cc(O)cc(O)c4)CC3)C1=O)c1cc(F)c(O)c(O)c1F)C2 [Example 623, (R)-3-((R)-2-(2,5-difluoro-3,4-dihydroxyphenyl)-2-(3-(1-(3,5-dihydroxybenzoyl)piperidin-4-yl)-2-oxoimidazolidine-1-carboxamido)acetamido)-7-fluoro-2-hydroxy-3,4-dihydro-2H-benzo[e][1,2]oxaborinine-8-carboxylic acid] | < 1 | < 1 | < 1 | – | < 1 | < 1 | < 1 | < 1 | < 1 | – | – | – | – | – | – | – | – | – | – | – |
